From ChEMBL document CHEMBL6092191, “Advancing Cancer Immunotherapy through Engineering New PD-L1 Degraders: A Comprehensive Study from Small Molecules to PD-L1-Specific Peptide-Drug Conjugates” (J Med Chem, 2024)
Active and inactive are the calls of the source. The calls are words filed in the database; no cut-off is given here.

Tests used:
[1] = Drug uptake in human PC-9 cells at 10 uM by fluorescence microscopy; format: ADME, cell-based; conditions: pc-9, 10 µM
[2] = target: COP9 signalosome complex subunit 5 (Homo sapiens) (UniProt Q92905); experiment: Induction of PD-L1 degradation in human NCI-H460 cells at 10 uM incubated for 24 hrs by Western blot analysis; format: cell-based
COP9 signalosome complex subunit 5 (Homo sapiens), sequence (Q92905 2-334 limits assumed, one chain of several): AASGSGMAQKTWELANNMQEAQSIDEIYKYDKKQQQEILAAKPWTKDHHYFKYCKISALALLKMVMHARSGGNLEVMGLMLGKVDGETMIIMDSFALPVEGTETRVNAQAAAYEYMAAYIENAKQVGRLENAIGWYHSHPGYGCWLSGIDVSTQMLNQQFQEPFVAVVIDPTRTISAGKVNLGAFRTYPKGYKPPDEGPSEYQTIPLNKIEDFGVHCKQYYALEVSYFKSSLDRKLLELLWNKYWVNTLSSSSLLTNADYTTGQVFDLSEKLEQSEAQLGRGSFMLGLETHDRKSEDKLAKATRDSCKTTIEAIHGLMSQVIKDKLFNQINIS

[3] = target: COP9 signalosome complex subunit 5 (Homo sapiens) (UniProt Q92905); experiment: Induction of PD-L1 degradation in human PC-9 cells incubated for 24 hrs by Western blot analysis; format: cell-based; conditions: dose <= 100.0 µM
[4] = target: COP9 signalosome complex subunit 5 (Homo sapiens) (UniProt Q92905); experiment: Induction of PD-L1 degradation in […] cells incubated for 24 hrs by Western blot analysis; format: cell-based; conditions: Lewis lung carcinoma cell line, dose <= 100.0 µM
[5] = target: COP9 signalosome complex subunit 5 (Homo sapiens) (UniProt Q92905); experiment: Induction of PD-L1 degradation in human PC-9 cells at 10 uM by Western blot analysis; format: cell-based; conditions: time <= 36.0 hrs
[6] = target: COP9 signalosome complex subunit 5 (Homo sapiens) (UniProt Q92905); experiment: Induction of IFN-gamma-induced PD-L1 degradation in human HCC827 cells at 10 uM incubated for 24 hrs by Western blot analysis; format: cell-based
[7] = target: COP9 signalosome complex subunit 5 (Homo sapiens) (UniProt Q92905); experiment: Induction of IFN-gamma-induced PD-L1 degradation in human A549 cells at 10 uM incubated for 24 hrs by Western blot analysis; format: cell-based
[8] = target: COP9 signalosome complex subunit 5 (Homo sapiens) (UniProt Q92905); experiment: Induction of IFN-gamma-induced PD-L1 degradation in human NCI-H1299 cells at 10 uM incubated for 24 hrs by Western blot analysis; format: cell-based
[9] = target: COP9 signalosome complex subunit 5 (Homo sapiens) (UniProt Q92905); experiment: Induction of PD-L1 degradation in human PC-9 cells assessed as reduction in green signal at 10 uM incubated for 24 hrs by immunofluorescence staining based analysis; format: cell-based
[10] = test system: Lewis lung carcinoma cell line; experiment: Anticancer activity against Lewis lung carcinoma cells measured after 3 days by MTT assay; format: functional, cell-based; conditions: Mus musculus, 72 h
PC-9 = experiment: Antiproliferative activity against human PC-9 cells at 10 uM measured after 4 days by MTT assay; format: functional, cell-based; conditions: time 4.0 day
[11] = test system: Lewis lung carcinoma cell line; experiment: Antiproliferative activity against Lewis lung carcinoma cells at 10 uM measured after 4 days by MTT assay; format: functional, cell-based; conditions: Mus musculus, time 4.0 day
NCI-H460 = experiment: Inhibition of cell survival of human NCI-H460 cells co-cultivated with activated T cells at 10 uM incubated for 2 days by crystal violet staining based analysis; format: functional; conditions: time 2.0 day
[12] = test system: Lewis lung carcinoma cell line; experiment: Anticancer activity against Lewis lung carcinoma cells xenografted in C57BL/6 mouse model assessed as tumor growth inhibition at 10 mg/kg, ip administered daily for 10 days; format: functional, organism-based; conditions: time 10.0 day
Mus musculus = experiment: In vivo induction of PD-L1 degradation in […] lung carcinoma cells xenografted in C57BL/6 mouse model at 10 mg/kg, ip administered daily for 10 days by IHC analysis; format: functional, organism-based; conditions: time 10.0 day
[13] = test system: Lewis lung carcinoma cell line; experiment: Antitumor T-cell immune response in Lewis lung carcinoma cells xenografted in C57BL/6 mouse model assessed as decrease in CD3+ CD4+ population in CD45+ T cells in tumor at 10 mg/kg, ip administered daily for 10 days by flow cytometry; format: functional, organism-based; conditions: time 10.0 day
[14] = test system: Lewis lung carcinoma cell line; experiment: Antitumor T-cell immune response in Lewis lung carcinoma cells xenografted in C57BL/6 mouse model assessed as increase in CD3+ CD8+ infiltration in CD45+ T cells in tumor at 10 mg/kg, ip administered daily for 10 days by flow cytometry; format: functional, organism-based; conditions: time 10.0 day
[15] = test system: Lewis lung carcinoma cell line; experiment: Antitumor T-cell immune response in Lewis lung carcinoma cells xenografted in C57BL/6 mouse model assessed as increase in ratio of CD8+ to CD4+ T cells in tumor at 10 mg/kg, ip administered daily for 10 days by flow cytometry; format: functional, organism-based; conditions: time 10.0 day
[16] = test system: Lewis lung carcinoma cell line; experiment: Antitumor T-cell immune response in Lewis lung carcinoma cells xenografted in C57BL/6 mouse model assessed as increase in IFN-gamma level in tumor at 10 mg/kg, ip administered daily for 10 days by ELISA; format: functional, organism-based; conditions: time 10.0 day
[17] = test system: Lewis lung carcinoma cell line; experiment: Antitumor T-cell immune response in Lewis lung carcinoma cells xenografted in C57BL/6 mouse model assessed as increase in TNF-alpha level in tumor at 10 mg/kg, ip administered daily for 10 days by ELISA; format: functional, organism-based; conditions: time 10.0 day
[18] = test system: Lewis lung carcinoma cell line; experiment: Antitumor T-cell immune response in Lewis lung carcinoma cells xenografted in C57BL/6 mouse model assessed as increase in GrB level in tumor at 10 mg/kg, ip administered daily for 10 days by ELISA; format: functional, organism-based; conditions: time 10.0 day
[19] = Toxicity in C57BL/6 mouse model xenografted with […] cells assessed as obvious damage in liver at 10 mg/kg, ip administered daily for 10 days by H and E staining based analysis; format: organism-based; conditions: in vivo, 240 h, time 10 day
[20] = Toxicity in C57BL/6 mouse model xenografted with […] cells assessed as obvious damage in lung at 10 mg/kg, ip administered daily for 10 days by H and E staining based analysis; format: organism-based; conditions: in vivo, 240 h, time 10 day
[21] = Toxicity in C57BL/6 mouse model xenografted with […] cells assessed as obvious damage in spleen at 10 mg/kg, ip administered daily for 10 days by H and E staining based analysis; format: organism-based; conditions: in vivo, 240 h, time 10 day
[22] = Toxicity in C57BL/6 mouse model xenografted with […] cells assessed as obvious damage in kidney at 10 mg/kg, ip administered daily for 10 days by H and E staining based analysis; format: organism-based; conditions: in vivo, 240 h, time 10 day
[23] = Toxicity in C57BL/6 mouse model xenografted with […] cells assessed as change in ALT level at 10 mg/kg, ip administered daily for 10 days; format: organism-based, Blood; conditions: in vivo, 240 h, time 10 day
[24] = Toxicity in C57BL/6 mouse model xenografted with […] cells assessed as change in AST level at 10 mg/kg, ip administered daily for 10 days; format: organism-based, Blood; conditions: in vivo, 240 h, time 10 day
[25] = Toxicity in C57BL/6 mouse model xenografted with […] cells assessed as change in serum creatinine level at 10 mg/kg, ip administered daily for 10 days; format: organism-based; conditions: in vivo, 240 h, time 10 day
[26] = Toxicity in C57BL/6 mouse model xenografted with […] cells assessed as change in BUN level at 10 mg/kg, ip administered daily for 10 days; format: organism-based, Blood; conditions: in vivo, 240 h, time 10 day
A549 = experiment: Effect on IFN-gamma-induced PD-L1 mRNA expression in human A549 cells at 10 uM by qRT-PCR analysis; format: functional, cell-based
HCC827 = experiment: Effect on IFN-gamma-induced PD-L1 mRNA expression in human HCC827 cells at 10 uM by qRT-PCR analysis; format: functional, cell-based
[27] = target: COP9 signalosome complex subunit 5 (Homo sapiens) (UniProt Q92905); experiment: Induction of PD-L1 degradation in human NCI-H460 cells upto 40 uM in presence of chloroquine by Western blot analysis; format: cell-based
[28] = target: COP9 signalosome complex subunit 5 (Homo sapiens) (UniProt Q92905); experiment: Induction of PD-L1 degradation in human NCI-H460 cells upto 20 uM in presence of MG132 by Western blot analysis; format: cell-based
[29] = target: COP9 signalosome complex subunit 5 (Homo sapiens) (UniProt Q92905); experiment: Induction of PD-L1 degradation in human NCI-H460 cells assessed as PD-L1 ubiquitination by Western blot analysis; format: cell-based
[30] = target: COP9 signalosome complex subunit 5 (Homo sapiens) (UniProt Q92905); experiment: Binding affinity to CSN5 in NCI-H460 cell lysate by Western blot analysis; format: subcellular
3T3-L1 = experiment: Antiproliferative activity against mouse 3T3-L1 cells at 10 uM incubated for 4 days; format: toxicity, cell-based; conditions: 3t3-l1, 96 h, time 4 day
[31] = Antiproliferative activity against human HTori-3 cells at 10 uM incubated for 4 days; format: toxicity, cell-based; conditions: htori-3, 96 h, time 4 day
[32] = test system: Lewis lung carcinoma cell line; experiment: Antitumor activity against Lewis lung carcinoma cells xenografted in C57BL/6 mouse model at 5 mg/kg, ip administered daily for 8 days relative to control; format: functional; conditions: 192 h, time 8 day, read-out: TGI

- Drug uptake [1]: Time-dependent-effect
- Activity [3]: Dose-dependent-effect
- Activity [4]: Dose-dependent-effect
- Activity [5]: Time-dependent-effect
- Activity [6]: Active
- Activity [7]: Active
- Activity [8]: Active
- Activity [9]: Active
- IC50 [10]: 122 µM
- Activity [27]: Active
- Activity [28]: inactive
- Activity [29]: Active
- Activity [30]: Active
Compound: COc1cc2c(cc1OC)-c1cc3ccc(OC)c(OCCN)c3c[n+]1CC2.[Cl-]
- Activity [2]: Active; Most Effective Compound Among Pmt-O9 Derivatives
- Activity (PC-9): inactive
- Activity [11]: inactive
- inhibition (NCI-H460): Active
- Activity [12]: Active
- Activity (Mus musculus): Active
- Activity [13]: Active
- Activity [14]: Active
- Activity [15]: Active; Highest Enhancement Of Ratio Observed
- Activity [16]: Active
- Activity [17]: Active
- Activity [18]: Active
- Activity [19]: Non-toxic
- Activity [20]: Non-toxic
- Activity [21]: Non-toxic
- Activity [22]: Non-toxic
- Activity [23]: Non-toxic
- Activity [24]: Non-toxic
- Activity [25]: Non-toxic
- Activity [26]: Non-toxic
- Activity (A549): inactive
- Activity (HCC827): inactive
- Activity (3T3-L1): Non-toxic
- Activity [31]: Non-toxic
- inhibition in vivo at 5 mg/kg [32]: 66%
